Key:
[1] = test system: Pseudomonas aeruginosa biofilm; assay: MBEC of antibiotics, Calgary biofilm device; format: cell-based; conditions: treated with C9 5 mM, versus untreated group
Description: (§1) MIC and MBEC values of a biofilm formed on a peg of a […] biofilm device (CGM and CBD) treated with the coumarin-chalcone compound C9 were measured according to methods (Innovotech) in MBECTM high throughput experimental operation manual. Biofilm treated with the coumarin-chalcone compound C9 (5 mM) was cultured in an antibiotic-containing medium in a 96-well plate for 24 h, and the MIC value was obtained by measuring the OD600 of planktonic cells of the above samples. To determine the MBEC value, the biofilm treated with the coumarin-chalcone compound C9 (5 mM) was cultured in an antibiotic-containing medium in a 96-well plate for 24 h, then the biofilm was ultrasonically crushed and subsequently incubated at 37° C. for another 24 hours. Biomass of newly formed biofilms was recorded to indicate the corresponding MBEC value.

Pseudomonas aeruginosa [2] = assay: Antibiotic susceptibility, filter paper method (inhibition area); format: cell-based; conditions: C9 5 mM in culture medium, versus control group
Description: In the experiment, the coumarin-chalcone compound C9 (5 mM) was added to a culture medium, and an inhibition area of the corresponding antibiotics was measured by a conventional filter paper method.

[3] = test system: Pseudomonas aeruginosa PAO1 biofilm; assay: Biofilm assay (96-well PVC plate, crystal violet); format: cell-based
Description: 1% inoculation amount of the bacterial solution cultured overnight was inoculated into 100 μL Jensen liquid medium. Different equal amounts of bacteria solution with C1 to C12, respectively, or without any additional substance were cultured in a 96-well polyvinyl chloride (PVC) plate (costar) overnight at 30° C. without agitation.
The bacterial biomass adsorbed on the 96-well PVC plate was detected by a crystal violet method, and steps were described as below. (1) The non-attached bacteria were removed using a pipettor, then the wells were gently rinsed with normal saline for 3 times. (2) A volume of 120 μL 0.1% crystal violet solution was added to stain the firmly attached bacterial cells in each well, which then staying static at room temperature for 30 min. (3) The PVC plate was taken out, the crystal violet solution was removed with a pipettor, and the non-attached crystal violet solution was washed with normal saline. (4) The crystal violet attached onto the PVC plate was dissolved with 200 μL of 30% acetic acid solution. The OD value of the acetic acid solution in each well was measured at 560 nm with a spectrophotometer.

Pseudomonas aeruginosa [4] = assay: MIC of antibiotics, Calgary biofilm device; format: cell-based; conditions: treated with C9 5 mM, versus untreated group
Description: as §1

PAO1 strains = assay: Bacterial motility assay, twitching plate; format: cell-based, Pseudomonas aeruginosa; conditions: 37° C., 24 hours
Description: PAO1 strains were inoculated into a LBNS agar plate and were cultured overnight at 37° C. Single colonies were respectively stab-inoculated to the bottom of twitching plates with and without the coumarin-chalcone compound C9, and cultured at 37° C. for 24 hours. The growth of bacteria at an interface between the agar and the plastic plate was a twitching movement. When 1% TTC was added to the medium, the area that bacteria have visited may turn red, and then the diameter of the red area on each twitching plate was measured.

RhIR = assay: QS gene expression, GFP promoter fusion; format: cell-based, Pseudomonas aeruginosa; conditions: FIGS. 8A to 8D
Text: (§2) The QS system may regulate the formation of biofilm and the expression of multiple virulence factors. Whether the coumarin-chalcone compound C9 influences the QS regulation system was further studied. In the embodiment, a green fluorescent protein (GFP) was used as a reporter gene to examine the influence of the coumarin-chalcone compound C9 on the QS system. In this experiment, the transcription regulator genes (including LasR, RhIR, and PqsR) in three QS systems of Pseudomonas aeruginosa were used to study the gene expression of the QS system. By PCR expansion, promoter regions of the three genes were transcriptionally fused with a promoterless GFP fusion expression vector pProbe-AT, respectively, to construct transcription fusion plasmids that can indicate the expression level of LasR, RhIR, and PqsR genes, which were used as representatives of the expression of the three QS systems.
(§3) The overnight cultured bacterial solution was inoculated into the freshly prepared LB liquid medium to make its OD600 at 0.25, and then cultured for 2 h. Fluorescence was measured at 4 h, 8 h, 12 h, 16 h, 20 h, 24 h, respectively, and the measurement was performed in a 96-well plate. Bacterial growth was monitored by measuring OD600. The gene expression level was normalized by dividing the fluorescence value by the OD600 value of each sample.
(§4) The effects of the coumarin-chalcone compound C9 on the transcription of the three known QS regulators LasR, RhIR, and PqsR were examined by gfp fusion. FIGS. 8A to 8D are schematic diagrams illustrating the inhibition of QS systems in P. aeruginosa by compound C9. The transcription of QS-related genes (LasI, LasR, RhII, RhIR, PqsA, and PqsR) was indicated by the green fluorescent intensity of GFP-tagged promoter region through pPROBE-AT′ plasmid, the data of a blank group, a control group, and an experimental group treated with a coumarin-chalcone compound C9 were presented.

PqsR = assay: QS gene expression, GFP promoter fusion; format: cell-based, Pseudomonas aeruginosa; conditions: FIGS. 8A to 8D
Text: as §2, §3, §4

LasR = assay: QS gene expression, GFP promoter fusion; format: cell-based, Pseudomonas aeruginosa; conditions: FIGS. 8A to 8D
Text: as §2, §3, §4

[5] = test system: c-di-GMP (PAO1/pCdrA::gfp (ASV)); assay: Intracellular c-di-GMP, indirect, pCdrA::gfp reporter; format: cell-based, Pseudomonas aeruginosa; conditions: FIG. 6
Text: The intracellular c-di-GMP may control the conversion of bacterial lifestyle between plankton and biofilm. In order to analyze an effect of the coumarin-chalcone compound C9 on a concentration of the intracellular c-di-GMP, direct and indirect methods were used to measure the level of c-di-GMP in Pseudomonas aeruginosa.
Since the transcription and expression of the extracellular protein CdrA was related to the intracellular concentration of cyclic diguanylic acid (c-di-GMP), PAO1/pCdrA::gfp^s (ASV) was used to analyze c-di-GMP level indirectly.

Pseudomonas aeruginosa [6] = assay: Virulence in cabbage model; format: in vivo; conditions: C9 5 mM, 37° C., 36 hours, CFU
Description: The PAO1 culture inoculated with the coumarin-chalcone compound C9 (5 mM) was injected into a cabbage model and incubated at 37° C. for 36 hours. Then the colony phenotype was observed and colony-forming units (CFU) were calculated.
In the embodiment, the cabbage model was used to carry out the vivo experiment in vivo to study whether the coumarin-chalcone compound C9 affects the virulence of Pseudomonas aeruginosa. FIG. 9 is a schematic diagram illustrating virulences of bacteria of a blank group, a control group, and an experimental group treated with a coumarin-chalcone compound C9.

SMILES: COc1cccc(/C=C/C(=O)c2cc3ccccc3oc2=O)c1 [Compound C9]
- MBEC of a biofilm against ciprofloxacin [1]: significantly lower
- MBEC of a biofilm against tobramycin [1]: significantly lower
- susceptibility of Pseudomonas aeruginosa to fluoroquinolone antibiotics (CIP) (Pseudomonas aeruginosa [2]): significantly higher
- formation of Pseudomonas aeruginosa biofilm ([3]; C9 in a range of 1 mM to 5 mM): significantly inhibited
- reduction of the contents of Pseudomonas aeruginosa PAO1 biofilm ([3]; FIG. 1, overnight at 30° C., Jensen medium): 70%
- inhibition at 5000 µM ([3]; Pseudomonas aeruginosa, PAO1, concentration of C9 5 mM, read-out: inhibition rate of biofilm): 70%
- MIC of a biofilm against ciprofloxacin (Pseudomonas aeruginosa [4]): significantly lower
- MIC of a biofilm against tobramycin (Pseudomonas aeruginosa [4]): significantly lower
- twitching motility mediated by type IV pili (PAO1 strains): no effect
- transcription of RhIR (RhIR): downregulated
- transcription of PqsR (PqsR): downregulated
- transcription of LasR (LasR): downregulated
- fluorescence intensity of PAO1/pCdrA::gfp (ASV) [5]: significantly reduced
- reduction of virulence of Pseudomonas aeruginosa in the cabbage model (Pseudomonas aeruginosa [6]): 60%

From patent US11950594B2, “Methods and compositions for inhibiting formation of biofilms” (INSTITUTE OF MICROBIOLOGY, CHINESE ACADEMY OF SCIENCES, priority 2019, dated 2024)
